Laboratory results published in patent US7745390B2, “Antimicrobial peptides” (priority 2005, dated 2010).
pIC50: −log10 of the molar value. Square brackets hold non-standard residues; d marks the D form. Ends that are not written are not given here. Peptide text beside a SMILES is read from it.

Experiments:
[1] = tested on: B. cereus; format: cell-based; conditions: pH 7.2
Outline: (§1)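 Single-well growth assay: peptide + bacteria (~5×10^6 CFU/ml) in 10 mM phosphate pH 7.2/0.03% LB, 3 h 37 °C; add LB, overnight; OD600. MIC = lowest conc., no growth; IC50 = 50% growth vs medium.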

[2] = tested on: E. coli DH5a; format: cell-based; conditions: DH5a, pH 7.2
Outline: as §1

[3] = tested on: Salmonella; format: cell-based, S. typhimurium; conditions: pH 7.2
Outline: as §1

[4] = tested on: bacteria; assay: Activity in DMEM and RPMI media (lysis of bacteria); format: cell-based; parameters: key to Active in DMEM: YES: Active in DMEM; a blank means no activity; conditions: for Active in DMEM: Table 2, tested in DMEM and RPMI; for antimicrobial / antibacterial activity: medium not stated
Description: (§2) The CFU assay is the “gold standard” for evaluating antibiotics. Briefly, bacteria are grown overnight in rich medium, such as LB, and then diluted and grown in log phase for 2-4 hours. Cultures are set up as above, with the initial culture media being 10 mM phosphate buffer/0.03% LB; DMEM or RPMI; or DMEM or RPMI plus 10% serum (fetal calf, human, or mouse). After various periods of time, but generally 3 hours or less, aliquots are removed, diluted in LB at various dilutions, and plated on LB agar plates. Plates are incubated overnight at 37° C. and counted on an automatic colony counter.
In the column “Active in DMEM”, a blank means no activity. MAP stands for multiple antigenic peptide, where a number of identical peptide chains are synthesized and joined to a common core (like a dendrimer).
The peptides listed in Table 2 were tested in DMEM and RPMI, media that approximate blood and tissue conditions in vivo and those that were active under these conditions are listed in the last column (active in DMEM). […] No peptides that were all L-isomer peptides lysed bacteria in DMEM supplemented with serum.
The hydrophobic moment is a measure of amphipathicity and indicates how well the hydrophobic residues fall on one side of the helix while the hydrophilic residues fall on the opposite side is shown in column 7. This was determined using the Membrane Explorer Program (http://blanco.biomol.uci.edu/mpex/). A high number indicates a high hydrophobic moment. Column 8 again (like Table 2) indicates which of these peptides is active in DMEM.

[5] = tested on: bacteria; assay: Activity in serum containing media (10% FCS in DMEM or RPMI); format: cell-based; conditions: for active in serum containing media: 10% FCS in DMEM or RPMI
Description: as §2
Tests were conducted in low salt concentrations so that active peptide candidates could be identified more readily. It is important for in vivo applications that the present antimicrobial peptides be active in physiological salt concentrations (150 mM) as well as in the presence of other tissue components, such as blood plasma (serum). Serum may contain proteases that destroy peptides; the use of D-amino acids can improve protease resistance. See G12.21. […] Also active were G11.6, G11.26, G11.29, G11.30, G11.34, G11.35, G12.11, G12.19, G12.20 and G12.21. […]

Row | Compound | B. cereus MIC [1] | pIC50 [1] | E. coli DH5a MIC [2] | pIC50 [2] | pIC50 [3] | Salmonella MIC [3] [µM] | Active in DMEM [4] | active in physiological salt concentrations (150 mM) and presence of serum [5] | active in serum containing media [5] | antimicrobial / antibacterial activity [4]
1 | RRVSRRPMRRYRSRRPRRLV [Peptide G12.12] | 0.35 µM | 6.68 | 0.35 µM | 6.68 | 6.68 | 0.35 | YES | active in such conditions | – | –
2 | RRVSRPPMRRYRSRRPRRLV [Peptide G12.20] | 0.35 µM | 6.68 | 0.73 µM | 6.64 | 6.38 | 1.4 | YES | – | active | –
3 | CSCC[C@H](NC(=O)[C@H](Cc1ccccc1)NC(=O)[C@@H](CCCNC(=N)N)NC(=O)[C@@H](CCCNC(=N)N)NC(=O)[C@H](CO)NC(=O)[C@H](NC(=O)[C@@H](CCCNC(=N)N)NC(=O)[C@@H](N)CCCNC(=N)N)C(C)C)C(=O)N[C@H](CCCNC(=N)N)C(=O)N[C@@H](CCCNC(=N)N)C(=O)O [Peptide G11.34, RrvSrrFMrR] (H-R[dR][dV]S[dR][dR]FM[dR]R-OH; N-terminus and C-terminus assumed) | >10 µM | < 5.00 | 0.7 µM | 6.39 | 5.80 | 2.8 | YES | – | active | –
4 | QRSVSRAATRVSRTGRSRWRRVSRRFMRR [Peptide G8.9] | 0.7 µM | 6.35 | 0.7 µM | 6.35 | 6.66 | 0.35 | YES | – | – | –
5 | CC(C)C[C@@H](NC(=O)[C@@H](CCCNC(=N)N)NC(=O)[C@@H](CCCNC(=N)N)NC(=O)[C@H]1CCCN1C(=O)[C@@H](CCCNC(=N)N)NC(=O)[C@@H](CCCNC(=N)N)NC(=O)[C@@H](CO)NC(=O)[C@@H](CCCNC(=N)N)NC(=O)[C@@H](Cc1ccc(O)cc1)NC(=O)[C@@H](CCCNC(=N)N)NC(=O)[C@@H](CCCNC(=N)N)NC(=O)[C@H]1CCCN1C(=O)[C@H]1CCCN1C(=O)[C@H]1CCCN1C(=O)[C@@H](CCCNC(=N)N)NC(=O)[C@@H](CO)NC(=O)[C@H](NC(=O)[C@@H](CCCNC(=N)N)NC(=O)[C@H](N)CCCNC(=N)N)C(C)C)C(=O)N[C@@H](C(=O)O)C(C)C [Peptide G12.25, rrvsrppprryrsrrprrlv] (H-[dR][dR][dV][dS][dR][dP][dP][dP][dR][dR][dY][dR][dS][dR][dR][dP][dR][dR][dL][dV]-OH; N-terminus and C-terminus assumed) | <.078 µM | > 7.11 | 0.15 µM | > 7.11 | 7.00 | 1.25 | YES | – | – | has lost much of its antibacterial activity
6 | RRVSRRFMRRYRSRRPRRLV [Peptide G12.11] | 0.35 µM | 6.68 | 0.75 µM | 6.68 | 6.39 | 0.65 | YES | – | active | –
7 | CSCC[C@@H](NC(=O)[C@H](Cc1ccccc1)NC(=O)[C@@H](CCCNC(=N)N)NC(=O)[C@@H](CCCNC(=N)N)NC(=O)[C@H](CO)NC(=O)[C@H](NC(=O)[C@H](CCCNC(=N)N)NC(=O)[C@@H](N)CCCNC(=N)N)C(C)C)C(=O)N[C@@H](CCCNC(=N)N)C(=O)N[C@@H](CCCNC(=N)N)C(=O)O [Peptide G11.35, RRvSrrFmRR] (H-RR[dV]S[dR][dR]F[dM]RR-OH; N-terminus and C-terminus assumed) | >10 µM | < 5.00 | 0.7 µM | 6.39 | 5.49 | 5.7 | YES | – | active | –
8 | RRVSRRFMRRD-NH2 [G11.30 CYC, RRVSRRFMRRD] | >10 µM | 5.12 | 5.7 µM | 5.46 | 5.11 | >10 | – | – | active | –
9 | CSCC[C@@H](NC(=O)[C@H]1CCCN1C(=O)[C@@H](CCCCN)NC(=O)[C@@H](CCCCN)NC(=O)[C@@H](CO)NC(=O)[C@H](NC(=O)[C@@H](CCCCN)NC(=O)[C@H](N)CCCCN)C(C)C)C(=O)N[C@H](CCCCN)C(=O)N[C@H](CCCCN)C(=O)N[C@H](Cc1ccc(O)cc1)C(=O)N[C@H](CCCCN)C(=O)N[C@H](CO)C(=O)N[C@H](CCCCN)C(=O)N[C@H](CCCCN)C(=O)N1CCC[C@@H]1C(=O)N[C@H](CCCCN)C(=O)N[C@H](CCCCN)C(=O)N[C@H](CC(C)C)C(=O)N[C@@H](C(=O)O)C(C)C [Peptide G12.28, kkvskkpmkkykskkpkklv] (H-[dK][dK][dV][dS][dK][dK][dP][dM][dK][dK][dY][dK][dS][dK][dK][dP][dK][dK][dL][dV]-OH; N-terminus and C-terminus assumed) | – | – | – | – | – | – | – | – | – | inactive peptide
10 | GRSRWRRVSRRFMRR [Peptide G14.11, GRSRWRRVSRRFMRR] | 0.7 µM | 6.35 | 0.7 µM | 6.35 | 6.36 | 0.65 | YES | – | – | –
11 | CSCC[C@@H]1NC(=O)[C@H](Cc2ccccc2)NC(=O)[C@H](CCCCN)NC(=O)[C@H](CCCCN)NC(=O)[C@H](CO)NC(=O)[C@H](C(C)C)NC(=O)[C@H](CCCCN)NC(=O)[C@H](CCCCN)NC(=O)[C@H](CC(N)=O)NC(=O)[C@H](CCCCN)NC(=O)[C@H](CCCCN)NC(=O)[C@H](CCSC)NC(=O)[C@H](Cc2ccccc2)NC(=O)[C@H](CCCCN)NC(=O)[C@H](CCCCN)NC(=O)[C@H](CO)NC(=O)[C@H](C(C)C)NC(=O)[C@H](CCCCN)NC(=O)[C@H](CCCCN)NC(=O)[C@H](CO)NC(=O)CNC(=O)[C@H](CCCCN)NC(=O)[C@H](CCCCN)NC1=O [G11.32 CYC] | 0.35 µM | 6.68 | 0.35 µM | 6.70 | 6.68 | 0.35 | YES | – | – | –
12 | CSCC[C@@H](NC(=O)[C@H]1CCCN1C(=O)[C@H]1CCCN1C(=O)[C@@H](CCCNC(=N)N)NC(=O)[C@@H](CO)NC(=O)[C@H](NC(=O)[C@@H](CCCNC(=N)N)NC(=O)[C@H](N)CCCNC(=N)N)C(C)C)C(=O)N[C@H](CCCNC(=N)N)C(=O)N[C@H](CCCNC(=N)N)C(=O)N[C@H](Cc1ccc(O)cc1)C(=O)N[C@H](CCCNC(=N)N)C(=O)N[C@H](CO)C(=O)N[C@H](CCCNC(=N)N)C(=O)N[C@H](CCCNC(=N)N)C(=O)N1CCC[C@@H]1C(=O)N[C@H](CCCNC(=N)N)C(=O)N[C@H](CCCNC(=N)N)C(=O)N[C@H](CC(C)C)C(=O)N[C@@H](C(=O)O)C(C)C [Peptide G12.26, rrvsrppmrryrsrrprrlv] (H-[dR][dR][dV][dS][dR][dP][dP][dM][dR][dR][dY][dR][dS][dR][dR][dP][dR][dR][dL][dV]-OH; N-terminus and C-terminus assumed) | 0.35 µM | > 7.11 | <.078 µM | > 7.11 | 7.00 | 0.3 | YES | – | – | loses some antibacterial activity compared to G12.21
13 | QRSVSRPPTRVSRTGRSRWRDVSRRFMRR [Peptide G8.12] | 0.35 µM | 6.68 | 0.35 µM | 6.68 | 6.68 | 0.35 | YES | – | – | –
14 | QRAVANAATRVARTGRARWRDVARRFMRR [Peptide G8.6] | 1.5 µM | 6.05 | 0.7 µM | 6.35 | 6.37 | 0.7 | – | – | – | –
15 | RDVSRRFMRRQSRVIQGLV [Peptide G12.3, RDVSRRFMRRQSRVIQGLV] | >10 µM | 5.11 | 5.7 µM | 5.45 | 5.46 | 5.5 | – | – | – | –
